Data from US9534221B2, “Targeting the steroidogenic pathway for treating and/or preventing allergic diseases” (National Jewish Health, priority 2013, dated 2017).
Where “and” joins values, the source holds several entries; their conditions need not be identical. Equal entries are not always repeated.

System: CD8+ T cells
Assay: Flow cytometric intracellular staining of IFN-γ and IL-13 in CD8+ T cells
Format: cell-based, mouse
Procedure: CD8^+ effector memory T cells were generated in vitro as previously described (Miyahara, N. et al. J. Immunol. 172, 2549-2558 (2004); Miyahara, N. et al. J. Immunol. 174, 4979-4984 (2005)). In brief, mononuclear cells (MNCs) were processed from the spleens of OT-1 mice followed by stimulation of 1 μg/ml SIINFEKL peptide (SEQ ID NO:1) was used to stimulate cells for 1.5 hours. Two days after culture, living cells were re-isolated using histopaque and cultured in complete RPMI 1640 medium that contained recombinant mouse IL-2 (20 ng/ml) (R&D, Minneapolis, Minn.) or IL-2+IL-4 (20 ng/ml) (Peprotech, Rocky Hill, N.J.). For some experiments, AMG was added into the medium together with IL-2 or IL-2+IL-4. Medium with cytokines was changed every day for a further 4 days. The cells were then re-stimulated with 1 μg/ml SIINFEKL (SEQ ID NO:1) in medium containing 2 μM monensin (Calbiochem, La Jolla, Calif.) for 4 hours. […]
For intracellular staining, 1×10^6/ml cells were washed twice with PBS containing 1% BSA, stimulated with 1 μg/ml SIINFEKL in the presence of 2 μM monensin at 37° C. for 4 hours. After fixation with 4% paraformaldehyde (Electron Microscopy Sciences, Hatfield, Pa.) and permeabilization with 0.1% saponin (Sigma, St. Louis, Mo.), cells were washed twice with PBS containing 1% BSA, then incubated with anti-mouse CD16/CD32 (2.4G2) (BD Bioscience, San Jose, Calif.) at 4° C. for 5 minutes, then stained with FITC labeled anti-mouse IFN-γ (XMG 1.2) (eBioscience, San Diego, Calif.) or PerCP-Cy5.5 labeled anti-mouse […] (XMG 1.2) (eBioscience) and PE-labeled anti-mouse IL-13 (eBio13A) (eBioscience). For some experiments, fixed cells were stained with biotin labeled rabbit anti-Cyp11a1/p450 cc polyclonal antibody (Bioss, Woburn, Mass.) followed by PE-Cy5 labeled streptavidin (PE-Cy5-SAv) (eBioscience). Cell staining was monitored on a FACSCalibur (BD Bioscience) and analyzed using Flowjo software (Tree Star, Inc, Ashland, Oreg.).

[1] = IL-2+AMG (500 μM)+SIINFEKL 1 μg/ml
[2] = IL-2+IL-4+AMG (500 μM), no SIINFEKL
[3] = SIINFEKL and IL-2+IL-4, different concentrations of AMG

CCC1(c2ccc(N)cc2)CCC(=O)NC1=O (stereo not drawn) [AMG, aminoglutethimide] was tested, and the “Overall suppressive or toxic effect on CD8+ T cell cultures” value (AMG in culture) was “did not have an overall suppressive or toxic effect”, the “IFN-γ single positive cells” value [1] was 78.3 +/− 8.3% and the “IFN-γ+IL13+ double positive cells” value [1] was 9.0 +/− 2.7%. The “IL-13 single positive cells” value [1] was 0.1 +/− 0.1%, the “IFN-γ+IL13+ double positive cells” value (IL-2+IL-4+AMG (500 μM)+SIINFEKL, without AMG 8.8±2.3%) was 14.7±5.5% and 14.7 +/− 5.5% and the “IFN-γ single positive cells” value (IL-2+IL-4+AMG (500 μM)+SIINFEKL, without AMG 14.5±5.8%) was 42.4±11.5%. The “IL-13 single positive cells” value (IL-2+IL-4+AMG (500 μM)+SIINFEKL, without AMG 35.7±8.2%) was 14.7±8.9%, the “IFN-γ single positive cells” value [2] was 0.9 +/− 0.5% and the “IL-13 single positive cells” value [2] was 2.3 +/− 1.5%. The “IFN-γ-positive cells, dose dependence” value [3] was “increase in IFN-γ-positive cells”, the “Percentage of IL-13-positive cells, dose dependence” value [3] was “dramatic dose-dependent decrease in the percentage of IL-13-positive cells” and the “Duration of the effects of AMG on CD8+ T cell conversion before the cells recovered” value (initial studies) was “up to forty-eight hours”.
